Assays:
[1] = tested on: Hep3B cells; experiment: Pulse-chase time-lapse microscopy of fucosylated glycans; type: cell-based, human; settings: 30 minute pulse, biotin/streptavidin-FITC
Experimental: Additional cellular structures are visualized using alternative labeling systems (e.g., WGA lectin used to visualize Golgi apparatus, and Hoechst used to visualize nucleus).
Pulse-chased MOE experiments entail growing cells of interest to log-phase levels and then exposing them to the sugar analogs in the growth medium, as prescribed by standard MOE, but only for a 30 minute pulse, before replenishing with fresh medium devoid of sugars. Post sugar-pulse, the cells are grown for various lengths of time before analysis.
Cells of interest may be grown to log phase and then presented with various derivatized sugars for a limited period of time; for example, 30 minutes. After the limited period of time, the cells are no longer presented with the various sugars. The cells with glycoconjugates incorporating various tagged sugars may then be visualized over time through secondary detection and/or microscopy in relation to various intracellular and intercellular structures, in order to collect data on the trafficking and relative location of tagged and labeled glycoconjugates.

[2] = tested on: Jurkat cells; experiment: Flow cytometry of cell surface labeling with fluorogenic coumarin probe 7; type: cell-based, human; settings: 200 micromolar Fuc analogs or 25 micromolar ManNAc analogs, 3 days
From the text: FIGS. 3A and 3B show tagging of cell surface glycans by derivatized alkynyl sugar analogs and subsequent labeling with probe 3-azido-7-hydroxycoumarin 7. Shown is flow cytometry analysis of Jurkat cells tagged with 200 micromolar derivatized alkynyl Fuc 1 shown in FIG. 3A or 25 micromolar alkynyl-derivatized ManNAc 4 shown in FIG. 3B for 3 days. The fluorescence intensity was detected after labeling with a coumarin probe 7. Filled histogram, cells treated with control sugar analog 3 or 5; open histogram, cell treated with alkynyl-derivatized sugar 1 or 4.
Recently, another click-activated azido-derivatized fluorescent probe, based on coumarin, was reported in the literature. In one aspect of the disclosure, the fluorogenic probe, 3-azido-7-hydroxycoumarin 7, is used as the coupling partner for alkynyl tags on labeled glycoconjugates.
Jurkat cells were cultivated (2×10^6/10 ml) in RPMI medium 1640 supplemented with 10% FCS and various concentrations of peracetylated alkynyl sugars 1, 2, or 4 or native sugars 3 or 5, for 1-3 days at 37° C. […] Data were acquired by BD LSR II with FACSDiva software, and were analyzed by CellQuestPro software (BD Biosciences). Detection of fluorescent adduct with probe 7 was monitored with a 408 nm laser and a 440/40 bandpass filter for excitation and emission, respectively.

Substance: 1,2,3,4-tetraacetyl alkynyl fucose [alkynyl Fuc 1]
- signal for fucosylated glycans co-localized with Golgi marker after pulse [1]: co-localized yellow signal as early as 2 h
- fluorescent labeling after reacting with 3-azido-7-hydroxycoumarin probe [2]: significant fluorescent labeling
